Measured values from patent publication US11028051B2, “Tetrahydroquinoline-based bromodomain inhibitors” (St. Jude Children's Research Hospital, priority 2016, dated 2021).

Experiments:
Assay in all cases: competitive TR-FRET assay, BET-BD with acetylated peptide ligand
Format in all cases: binding
[1] = target: BRD2-BD1 (Homo sapiens (Human), UniProt P25440); details: BRD2-BD1; Table 11 additional modifications; read-out: 2.1 EC50
Protocol: (§1) Inhibitor potency was determined using a competitive TR-FRET assay as detailed herein, measuring interaction of the respective BET-BD with an acetylated peptide ligand (Table 2).

[2] = target: BRD4-BD1 (Homo sapiens (Human), UniProt O60885); details: BRD4-BD1; Table 11 additional modifications; read-out: 4.1 EC50
Protocol: as §1

[3] = target: BRDT (Homo sapiens, UniProt Q58F21); details: BRDT; Table 11 additional modifications; read-out: BRDT EC50
Protocol: as §1

[4] = target: BRD4-BD2 (Homo sapiens (Human), UniProt O60885); details: BRD4-BD2; Table 11 additional modifications; read-out: 4.2 EC50
Protocol: as §1

[5] = target: BRD2-BD2 (Homo sapiens (Human), UniProt P25440); details: for EC50: BRD2-BD2, Table 11 additional modifications, read-out: 2.2 EC50; for 2.1/2.2: ratio of BRD2-BD1 EC50 to BRD2-BD2 EC50 (selectivity)
BRD2-BD2, sequence (P25440 344-453): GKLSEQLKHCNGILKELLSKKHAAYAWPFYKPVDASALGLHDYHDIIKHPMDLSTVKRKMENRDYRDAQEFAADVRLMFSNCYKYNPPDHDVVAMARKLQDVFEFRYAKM
Protocol: as §1

[6] = target: BRD3-BD1 (Homo sapiens (Human), UniProt Q15059); details: BRD3-BD1; Table 11 additional modifications; read-out: 3.1 EC50
BRD3-BD1, sequence (Q15059 34-140): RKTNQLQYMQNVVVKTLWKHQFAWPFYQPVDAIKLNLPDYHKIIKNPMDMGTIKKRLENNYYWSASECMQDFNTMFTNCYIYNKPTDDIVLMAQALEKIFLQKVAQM
Protocol: as §1

BRD2-BD1, sequence (P25440 74-180): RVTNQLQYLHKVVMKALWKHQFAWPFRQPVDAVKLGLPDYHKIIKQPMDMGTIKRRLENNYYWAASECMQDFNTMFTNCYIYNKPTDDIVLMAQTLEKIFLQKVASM

SMILES	EC50 [1]	EC50 [2]	EC50 [3]	EC50 [4]	EC50 [5]	2.1/2.2 [5]	EC50 [6]
CC(=O)Nc1cccc(-c2ccc3c(c2)[C@H](NC2CCCC2)C[C@H](C)N3C(C)=O)c1 [compound 38]	5.5 µM	6.8 µM	11 µM	2.6 µM	2.4 µM	2.3	3.7 µM
CC(=O)Nc1cccc(-c2ccc3c(c2)[C@H](Nc2ccc(OC(F)(F)F)cc2)C[C@H](C)N3C(C)=O)c1 [compound 132]	20 µM	17 µM	10 µM	0.54 µM	0.37 µM	16	10 µM
CC(=O)Nc1cccc(-c2ccc3c(c2)[C@H](N)C[C@H](C)N3C(C)=O)c1 [compound 9]	12 µM	47 µM	10 µM	15 µM	14 µM	0.86	10 µM
CC(=O)N1c2ccc(-c3coc4ccccc34)cc2[C@H](NC(=O)OC(C)C)C[C@@H]1C [compound 90]	11 µM	8.7 µM	14 µM	56 µM	3.5 µM	0.84	3.4 µM
CC(=O)Nc1cccc(-c2ccc3c(c2)[C@H](Nc2ccc(N(C)C(C)=O)cc2)C[C@H](C)N3C(C)=O)c1 [compound 11]	3.2 µM	3.4 µM	4.3 µM	51 µM	0.2 µM	16	1.6 µM
CC(=O)Nc1cccc(-c2ccc3c(c2)[C@H](Nc2ccc([N+](=O)[O-])cc2)C[C@H](C)N3C(C)=O)c1 [compound 127]	2.3 µM	2.9 µM	4.1 µM	0.06 µM	0.11 µM	17	1.2 µM
CC(=O)N1c2ccc(-c3c[nH]c4ccccc34)cc2[C@H](NC(=O)OC(C)C)C[C@@H]1C [compound 91]	1.3 µM	0.86 µM	4.9 µM	37 µM	1.1 µM	0.032	1.1 µM
COc1ccc(N[C@@H]2C[C@H](C)N(C(C)=O)c3ccc(-c4cccc(NC(C)=O)c4)cc32)cc1 [compound 18]	1.9 µM	2.3 µM	2.6 µM	0.08 µM	0.11 µM	4.8	1.5 µM
COC(=O)c1cccc(N[C@@H]2C[C@H](C)N(C(C)=O)c3ccc(-c4cccc(NC(C)=O)c4)cc32)c1 [compound 7]	81 µM	4.8 µM	10 µM	81 µM	0.08 µM	>1000	1.6 µM
